Assay results published in article PMC6268888, “Novel Coumarin Derivatives Containing 1,2,4-Triazole, 4,5-Dicyanoimidazole and Purine Moieties: Synthesis and Evaluation of Their Cytostatic Activity” (Molecules, 2012).
“And” between values parts separate entries of the source, which are not always exact repeats. Equal entries are not always repeated. Where two headings read alike, the source gives them in different places.

Columns and labels:
[1] = system: HeLa (cervical carcinoma); experiment: MTT proliferation assay, HeLa cells; type: cell-based, human; conditions: 72 h, read-out: IC50 (50% growth inhibition) HeLa
Protocol: (§1) This study was set out to examine the anti-proliferative effects of coumarin derivates (3–18) on human tumor cell lines and normal (diploid) human fibroblasts.
(§2) Cell culturing: Human cell lines HeLa (cervical carcinoma), SW620 (colorectal adenocarcinoma, metastatic), MCF-7 (breast epithelial adenocarcinoma, metastatic), HepG2 (hepatocellular carcinoma) and BJ (normal diploid human fibroblasts) were cultured as monolayers and maintained in Dulbecco’s modified Eagle medium (DMEM) supplemented with 10% fetal bovine serum (FBS), 2 mM L-glutamine, 100 U/mL penicillin and 100 μg/mL streptomycin in a humidified atmosphere with 5% CO2 at 37 °C.
(§3) Proliferation assay: The cell lines were inoculated into a series of standard 96-well microtiter plates on day 0 at seeding density of 3,000–6,000 cells per well depending upon their specific doubling times. Freshly prepared dilutions of test compounds in culture medium in the concentration range 1 × 10^−8–1 × 10^−4 M were added to the microtiter plates, and the cells were grown for further 72 h. The solvent (DMSO) was also tested for its potential inhibitory activity by adjusting its concentration to the values used for the preparation of the working concentrations (DMSO concentration never exceeded 0.1%). After 72 h of incubation, the cell growth rate was evaluated by performing the MTT assay: experimentally determined absorbance values were transformed into the cell percentage growth (PG) using the formulas proposed by NIH and described previously. This method directly relies on control cells behaving normally at the day of assay commencement because it compares the growth of treated cells with that of untreated cells in control wells on the same plate. The results are therefore a percentile difference from the calculated expected value. […] If, however, all of the tested concentrations produce PGs exceeding the respective reference level of effect (e.g., PG value of 50) for a given cell line, the highest tested concentration is assigned as the default value (in the screening data report that default value is preceded by a “>” sign). Each test point was performed in quadruplicate in three individual experiments. The results were statistically analyzed (ANOVA, Tukey post-hoc test at p < 0.05).

[2] = system: MCF-7 (breast epithelial adenocarcinoma, metastatic); experiment: MTT proliferation assay, MCF-7 cells; type: cell-based, human; conditions: read-out: IC50 (50% growth inhibition) MCF-7
Protocol: as §1, §2, §3

[3] = system: HepG2 (hepatocellular carcinoma); experiment: MTT proliferation assay, HepG2 cells; type: cell-based, human; conditions: 72 h, read-out: IC50 (50% growth inhibition) HepG2
Protocol: as §1, §2, §3

[4] = system: SW620 (colorectal adenocarcinoma, metastatic); experiment: MTT proliferation assay, SW620 cells; type: cell-based, human; conditions: read-out: IC50 (50% growth inhibition) SW620
Protocol: as §1, §2, §3

[5] = system: BJ (normal diploid human fibroblasts); experiment: MTT proliferation assay, BJ normal fibroblasts; type: cell-based; conditions: 72 h, read-out: IC50 (50% growth inhibition) BJ
Protocol: as §1, §2, §3

Row | IC50 ([1]; Homo sapiens, HeLa) [µM] | IC50 ([2]; Homo sapiens, MCF7, 72 h) [µM] | IC50 ([3]; Homo sapiens) [µM] | IC50 ([4]; Homo sapiens, SW-620, 72 h) [µM] | IC50 [1] [µM] | IC50 ([2]; 72 h) [µM] | IC50 [3] | IC50 ([4]; 72 h) | melting point [°C] | Compound | IC50 ([5]; Homo sapiens, Fibroblast) [µM] | IC50 [5] [µM]
1 | > 100 | > 100 | > 100 | > 100 |  |  |  |  |  | COc1ccc(C(CCO)Cn2cnc(CO)n2)c(O)c1 (stereo not drawn) [Compound 17, ethyl 1-(4-hydroxy-2-(2-hydroxy-4-methoxyphenyl)butyl)-1,2,4-triazole-3-hydroxymethyl] | > 100 | 
2 |  |  |  |  | > 100 | > 100 | > 100 µM | > 100 µM |  | 1-((7-Hydroxy-2-oxo-2H-chromen-4-yl)methyl)-6-chloropurine [Compound 8] |  | > 100
3 |  |  |  |  | 34 ± 8.4 | > 100 | 25 µM and 25.6 µM | 35 µM and 35.4 µM |  | 1-((7-Hydroxy-2-oxo-2H-chromen-4-yl)methyl)-2-amino-6-chloropurine [Compound 10] |  | > 100
4 | > 100 | > 100 | > 100 | > 100 |  |  |  |  | 216 to 218 | COC(=O)c1ncn(Cc2cc(=O)oc3cc(O)ccc23)n1 [Compound 3, Methyl 1-((7-hydroxy-2-oxo-2H-chromen-4-yl)methyl)-1,2,4-triazole-3-carboxylate] | > 100 | 
5 | > 100 | > 100 | > 100 | > 100 |  |  |  |  | 234 to 237 | COC(=O)c1ncn(Cc2cc(=O)oc3cc(OC)ccc23)n1 [Compound 5, Methyl 1-((7-Methoxy-2-oxo-2H-chromen-4-yl)methyl)-1,2,4-triazole-3-carboxylate] | > 100 | 
6 |  |  |  |  | > 100 | > 100 | > 100 µM | > 100 µM |  | 1-((7-Hydroxy-2-oxo-2H-chromen-4-yl)methyl)-2-aminopurine [Compound 11] |  | > 100
7 |  |  |  |  | > 100 | > 100 | > 100 µM | > 100 µM |  | 1-(4-Hydroxy-2-(2-hydroxy-4-methoxyphenyl)butyl)guanine [Compound 18] |  | > 100
8 | > 100 | > 100 | > 100 | > 100 |  |  |  |  |  | CCOC(=O)c1ncn(CC(CCO)c2ccc(OC)cc2O)n1 (stereo not drawn) [Compound 14, Ethyl 1-(4-hydroxy-2-(2-hydroxy-4-methoxyphenyl)butyl)-1,2,4-triazole-3-carboxylate] | > 100 | 
9 | > 100 | > 100 | > 100 | > 100 |  |  |  |  |  | NC(=O)c1ncn(Cc2cc(=O)oc3cc(O)ccc23)n1 [Compound 4, 1-((7-Hydroxy-2-oxo-2H-chromen-4-yl)methyl)-1,2,4-triazole-3-carboxamide] | > 100 | 
10 |  |  |  |  | > 100 | > 100 | > 100 µM | > 100 µM |  | 1-((7-Hydroxy-2-oxo-2H-chromen-4-yl)methyl)purine [Compound 9] |  | > 100
11 |  |  |  |  | > 100 | > 100 | > 100 µM | > 100 µM |  | 1-((7-Methoxy-2-oxo-2H-chromen-4-yl)methyl)guanine [Compound 13] |  | > 100
12 | > 100 | > 100 | > 100 | > 100 |  |  |  |  |  | COc1ccc(C(CCO)Cn2cnc(C(N)=O)n2)c(O)c1 (stereo not drawn) [Compound 15, 1-(4-Hydroxy-2-(2-hydroxy-4-methoxyphenyl)butyl)-1,2,4-triazole-3-carboxamide] | > 100 | 
13 |  |  |  |  | > 100 | > 100 | > 100 µM | > 100 µM |  | 1-((7-Methoxy-2-oxo-2H-chromen-4-yl)methyl)-2-amino-6-chloropurine [Compound 12] |  | > 100
14 | > 100 | > 100 | > 100 | > 100 |  |  |  |  |  | COc1ccc(C(CCO)Cn2cncn2)c(O)c1 (stereo not drawn) [Compound 16, 1-(4-hydroxy-2-(2-hydroxy-4-methoxyphenyl)butyl)-1,2,4-triazole] | > 100 | 
15 | > 100 | > 100 | > 100 | > 100 |  |  |  |  | 238 to 240 | N#Cc1ncn(Cc2cc(=O)oc3cc(O)ccc23)c1C#N [Compound 7, 1-((7-Hydroxy-2-oxo-2H-chromen-4-yl)methyl)-4,5-dicyanoimidazole] | > 100 | 
16 | 35 | > 100 | > 100 | > 100 | 35.5 ± 13.5 |  |  |  |  | COc1ccc2c(Cn3cnc(C(N)=O)n3)cc(=O)oc2c1 [Compound 6, 1-((7-Methoxy-2-oxo-2H-chromen-4-yl)methyl)-1,2,4-triazole-3-carboxamide] | > 100 | 
